BindingDB's records for doi:10.1007/s10822-022-00478-x (Roche Innovation Center Basel, F. Hoffmann-La Roche Ltd., 2022)
pIC50: −log10 of the molar value.

target: cAMP and cAMP-inhibited cGMP 3',5'-cyclic phosphodiesterase 10A (Homo sapiens, UniProt Q9Y233); experiment: PDE10A assay
Experimental: Compounds were diluted in 20 mM HEPES/NaOH (pH 7.5), 10 mM MgCl2 and 0.05 mg/ml bovine serum albumin. A fixed amount of 2 ng/well human PDE10A enzyme was added and incubated at room temperature for 15 min under agitation. The reaction was started by the addition of the substrate cocktail [3H]cGMP (Perkin Elmer NET337001MC, S.A. 13.5 Ci/mmol) / cGMP at a final concentration of 50 nM and incubated for an additional 15 min. The reaction was stopped by the addition of 0.5 mg/well of Y-Si SPA beads. The plates were shaken for 1 h, followed by a brief centrifugation (170 g for 1 min). The radioactivity bound to the beads was estimated using a TopCount (Perkin-Elmer). For the determination of IC50 values, a four parameters logistics equation was used. pIC50 is defined as − log10(IC50).

| Structure (SMILES) | pIC50 |
| --- | --- |
| Cn1ncc(C(=O)O)c1C(=O)Nc1ccc2nc(N3CCOCC3)nn2c1 [Roche-Dataset for PDE10A, Compound 1151] | 5.87 |
| CCCCc1cc(NC(=O)c2c(C(=O)N3CCC3)cnn2C)n(C2CCCC2)n1 [Roche-Dataset for PDE10A, Compound 814] | 6.21 |
| O=C(Nc1ccnn1CC(F)F)c1nc(C2CC2)ccc1Nc1cncnc1 [Roche-Dataset for PDE10A, Compound 642] | 7.34 |
| Cc1cc(C)c2c(NC(=O)c3c(C(=O)N4CCC4)cnn3C)nn(C)c2n1 [Roche-Dataset for PDE10A, Compound 1160] | 5.37 |
| CC(=O)c1ccc(NC(=O)c2nc(C3CC3)ccc2Nc2cncnc2)s1 [Roche-Dataset for PDE10A, Compound 974] | 7.44 |
| O=C(Nc1ccn2nc(-c3ccccc3)nc2c1)c1cc(Cl)nc(N2CCCCC2)c1 [Roche-Dataset for PDE10A, Compound 86] | 7.28 |
| O=C(Nc1cc(Cl)ncn1)c1ccc2cc(-c3ccccc3)nn2c1 [Roche-Dataset for PDE10A, Compound 419] | 6.60 |
| O=C(NCCC1CCCCC1)c1nc(C2CC2)cnc1Nc1cncnc1 [Roche-Dataset for PDE10A, Compound 901] | 5.85 |
| O=C(c1ccccc1)N1CCN(C(=O)c2nc(C3CC3)cnc2Nc2cncnc2)CC1 [Roche-Dataset for PDE10A, Compound 1104] | 5.00 |
| COc1nc(OCc2nc(-c3ccccc3)cn2C)nc2ccccc12 [Roche-Dataset for PDE10A, Compound 411] | 7.21 |
| CNC(=O)c1c(NC(=O)c2nc(Cl)c(OC)nc2Nc2cncnc2)cnn1C [Roche-Dataset for PDE10A, Compound 1152] | 5.34 |
| CN(C)c1nc(OCc2nc3ccccc3n2C)nc2ccc(Cl)cc12 [Roche-Dataset for PDE10A, Compound 470] | 6.92 |
| Cc1cccc(-c2cn3c(n2)C[C@H](NC(=O)c2c(C(=O)N(C)C)cnn2C)CC3)c1 [Roche-Dataset for PDE10A, Compound 241] | 7.47 |
| CN(C)C(=O)Cn1cc(NC(=O)c2nc(C3CC3)cnc2Nc2cncnc2)cn1 [Roche-Dataset for PDE10A, Compound 787] | 6.17 |
| Cn1nc(-c2ccc(C(F)(F)F)cn2)cc1NC(=O)c1c(C(=O)N2CCC2)cnn1C [Roche-Dataset for PDE10A, Compound 634] | 7.59 |
| COc1c(Cl)ccc2nc(CCc3nc(-c4ccccc4)cn3C)[nH]c(=O)c12 [Roche-Dataset for PDE10A, Compound 123] | 7.48 |
| CN(C)C(=O)c1cc(NC(=O)c2nc(C3CC3)ccc2Nc2cncnc2)[nH]n1 [Roche-Dataset for PDE10A, Compound 748] | 5.94 |
| O=C1c2ccccc2C(=O)N1CCc1cnc(-c2ccccc2)[nH]1 [Roche-Dataset for PDE10A, Compound 299] | 6.30 |
| O=C(NCCN1CCCc2ccccc21)c1nc(C2CC2)cnc1Nc1cncnc1 [Roche-Dataset for PDE10A, Compound 449] | 7.34 |

| Structure (SMILES) | pIC50 |
| --- | --- |
| Cc1ncc(C)n2nc(/C=C/c3nc(N4CCN(C(=O)OC(C)(C)C)CC4)nn3C)nc12 [Roche-Dataset for PDE10A, Compound 1119] | 6.40 |
| Cn1nc(C2CCCC2)cc1NC(=O)c1nc(C2CC2)ccc1Nc1cncnc1 [Roche-Dataset for PDE10A, Compound 677] | 6.36 |
| COCCN(C)C(=O)c1cnn(C)c1C(=O)Nc1ccn2cc(-c3cccc(F)n3)nc2n1 [Roche-Dataset for PDE10A, Compound 81] | 6.79 |
| COCC1(CNC(=O)c2nc(C3CC3)cnc2Nc2cncnc2)CC1 [Roche-Dataset for PDE10A, Compound 1010] | 5.75 |
| CC(C)(C)OCCCNC(=O)c1nc(C2CC2)cnc1Nc1cncnc1 [Roche-Dataset for PDE10A, Compound 968] | 6.53 |
| CN(C)CCn1nccc1NC(=O)c1nc(C2CC2)cnc1Nc1cncnc1 [Roche-Dataset for PDE10A, Compound 857] | 6.50 |
| O=C(N[C@]12C[C@H]3C[C@H](C[C@H](C3)C1)C2)c1nc(C2CC2)cnc1Nc1cncnc1 [Roche-Dataset for PDE10A, Compound 1143] | 6.10 |
| Cn1ncc(-c2ccccc2)c1C(=O)Nc1ccn2nc(-c3ccccc3)nc2c1 [Roche-Dataset for PDE10A, Compound 172] | 6.88 |
| Cc1cc(C)n2nc(/C=C/c3nc(Br)nn3C)nc2n1 [Roche-Dataset for PDE10A, Compound 1158] | 5.00 |
| Cn1cc(-c2ccccc2)nc1COc1nc2ccccc2c(=O)[nH]1 [Roche-Dataset for PDE10A, Compound 366] | 7.05 |
| Cn1cc(-c2ccccc2)nc1CCc1cccc(-c2ccccn2)n1 [Roche-Dataset for PDE10A, Compound 237] | 5.62 |
| CN(C)c1nc(/C=C/c2cccc(Br)n2)nc2ccc(Cl)cc12 [Roche-Dataset for PDE10A, Compound 574] | 6.55 |
| Cc1cnc(C)n2nc(/C=C/c3ncnn3C)nc12 [Roche-Dataset for PDE10A, Compound 1142] | 5.41 |
| Cc1[nH]c(-c2cccnc2)nc1CCN1C(=O)c2ccccc2C1=O [Roche-Dataset for PDE10A, Compound 260] | 5.81 |
| CCN(C)C(=O)c1c(C(=O)Nc2ccn3cc(-c4ccccc4)nc3n2)cnn1C [Roche-Dataset for PDE10A, Compound 144] | 5.00 |
| Cn1ncc(C(=O)N2CCOCC2)c1C(=O)Nc1cn(-c2cccc(C(F)(F)F)n2)cn1 [Roche-Dataset for PDE10A, Compound 719] | 5.05 |
| CNC(=O)c1cc(Cl)c(C)n2nc(CCc3nc(N4CCCC4)nn3C)nc12 [Roche-Dataset for PDE10A, Compound 273] | 5.21 |
| Cc1nc(-c2ccc(Cl)cc2)oc1C(=O)Nc1cc(-c2ccccn2)nn1C [Roche-Dataset for PDE10A, Compound 947] | 6.01 |

The next compounds have a higher pIC50 than those just listed; values first:

| pIC50 | Structure (SMILES) |
| --- | --- |
| 7.72 | Cn1ncc(C(=O)O)c1C(=O)Nc1ccc2cc(-c3ccccc3)nn2c1 [Roche-Dataset for PDE10A, Compound 377] |
| 7.72 | CN(C)C(=O)c1cnn(C)c1C(=O)N[C@@H]1CCn2cc(-c3ccccc3OC(F)F)nc2C1 [Roche-Dataset for PDE10A, Compound 317] |
| 7.89 | O=C(Nc1cccc(N2CCC(O)CC2)c1)c1nc(C2CC2)cnc1Nc1cncnc1 [Roche-Dataset for PDE10A, Compound 703] |
| 7.89 | COc1ccccc1-c1cn2c(n1)C[C@H](NC(=O)c1c(C(=O)N(C)C3CC3)cnn1C)CC2 [Roche-Dataset for PDE10A, Compound 278] |
| 7.92 | Cn1cc(-c2ccccc2)nc1C#Cc1ccc2nc(C(F)(F)F)cn2n1 [US10399985, Example 8] |
| 7.96 | Cc1cncc(-c2nc3cc(NC(=O)c4c(C(=O)N5CCC5)cnn4C)ccn3n2)c1 [Roche-Dataset for PDE10A, Compound 219] |
| 8.06 | CN(C)C(=O)c1cnn(C)c1C(=O)Nc1ccn2nc(-c3ccnc(S(C)(=O)=O)c3)nc2c1 [Roche-Dataset for PDE10A, Compound 421] |
| 8.07 | O=C(Nc1cccc(S(=O)(=O)CCO)c1)c1nc(C2CC2)cnc1Nc1cncnc1 [Roche-Dataset for PDE10A, Compound 734] |
| 8.09 | Cc1cc(C)n2nc(CCc3nc(N4CCCC4)nn3C3CC3)nc2n1 [Roche-Dataset for PDE10A, Compound 475] |
| 8.10 | Cn1nc(-c2ccccn2)cc1NC(=O)c1c(C(=O)N2CCC2)cnn1C [Roche-Dataset for PDE10A, Compound 535] |
| 8.18 | O=C(Nc1ccn(CCCC(F)(F)F)n1)c1nc(C2CC2)ccc1Nc1cncnc1 [Roche-Dataset for PDE10A, Compound 485] |
| 8.26 | CC(C)(O)CNC(=O)c1cccc(NC(=O)c2nc(C3CC3)cnc2Nc2cncnc2)n1 [Roche-Dataset for PDE10A, Compound 894] |
| 8.33 | COc1cc(-c2nc3cc(NC(=O)c4c(C(=O)N5CCC5)cnn4C)ccn3n2)ccn1 [Roche-Dataset for PDE10A, Compound 185] |
| 8.34 | Cc1ncc(C)n2nc(CCc3nc(N4CCC[C@@H]4C)nn3C)nc12 [Roche-Dataset for PDE10A, Compound 269] |
| 8.43 | CN(C)c1nc(OCc2nc(-c3ccccc3)cn2C)nc2ccc(Cl)cc12 [Roche-Dataset for PDE10A, Compound 89] |
| 8.49 | Cn1ncc(C(=O)N2CCCC2)c1C(=O)Nc1ccn2nc(N3CCOCC3)nc2c1 [Roche-Dataset for PDE10A, Compound 402] |
| 8.72 | Cc1cc(-c2nc3cc(NC(=O)c4c(C(=O)N5CCC5)cnn4C)ccn3n2)ccn1 [Roche-Dataset for PDE10A, Compound 234] |
| 8.95 | O=C(Nc1cc(-c2ccccn2)nn1CC1CCCC1)c1nc(C2CC2)ccc1Nc1cncnc1 [US8470820, 31] |
| 9.08 | CNC(=O)c1c(NC(=O)c2nc(C3CC3)ccc2Nc2cncnc2)cnn1CCOC [US8703768, 11] |
| 9.10 | COCCN(C)C(=O)c1cnn(C)c1C(=O)Nc1cc2nc(-c3ccccc3)nn2cn1 [Roche-Dataset for PDE10A, Compound 304] |
| 9.19 | Cc1ncc(NC(=O)c2nc(C3CC3)cnc2Nc2cncnc2)c(C(=O)NCC(C)(C)O)n1 [US8703768, 281] |
| 9.26 | Cc1c(Cl)cc(Cl)c2nc(CCc3nc(N4CCCC4)nn3C)nn12 [Roche-Dataset for PDE10A, Compound 357] |
| 9.51 | CC(C)(CO)NC(=O)c1ncccc1NC(=O)c1nc(C2CC2)cnc1Nc1cncnc1 [US8703768, 273] |
| 10.05 | CNC(=O)c1cc2[nH]c(-c3ccccc3)nc2cc1NC(=O)c1nc(C2CC2)ccc1Nc1cncnc1 [Roche-Dataset for PDE10A, Compound 621] |
